Measurements as given in ChEMBL document CHEMBL1140472, “Antioxidant properties and free radical-scavenging reactivity of a family of hydroxynaphthalenones and dihydroxyanthracenones” (Bioorg Med Chem, 2007).

Legend:
Assay type in all cases: functional
[1] = DPPH radical scavenging activity at 2.0 mM by ESR
[2] = DPPH radical scavenging activity at 1.0 mM by ESR
[3] = Galvinoxyl radical scavenging activity by ESR; set-up: concentration or dose not given beside the values
[4] = Hydroxyl radical scavenging activity at 0.6 mM by ESR
[5] = Hydroxyl radical scavenging activity assessed as Trolox equivalent antioxidant capacity
[6] = Hydroxyl radical scavenging activity at 1.0 mM by ESR

CC1C=CC(CO)c2c(O)c3c(c(O)c21)C(=O)C=CC3(C)C (stereo unspecified)
Activity [1]: 93% | Activity [2]: 4% | Activity [3]: 0% | Activity [4]: 47.5% | Ratio [5]: 5.1 | Activity [6]: 71.3%

CC1(C)C=CC(=O)c2c(O)c3c(c(O)c21)CC=CC3
Activity [2]: 4% | Activity [3]: 0% | Activity [4]: 47.5% | Ratio [5]: 5.86 | Activity [6]: 68.2%

CC1C=CC(CO)c2c(O)c3c(c(O)c21)C(C)(C)C=CC3=O (stereo unspecified)
Activity [2]: 4% | Activity [3]: 0% | Activity [4]: 47.5% | Ratio [5]: 6.41 | Activity [6]: 72%

CC1(C)C=CC(=O)c2c(O)ccc(O)c21
Activity [2]: 4% | Activity [3]: 0% | Activity [4]: 47.5% | Ratio [5]: 3.76 | Activity [6]: 50%

COc1ccc(O)c2c1C(C)(C)C=CC2=O
Activity [2]: 4% | Activity [3]: 0% | Activity [4]: 47.5% | Ratio [5]: 1.56 | Activity [6]: 47.5%

COc1ccc(O)c2c1C(=O)C=CC2(C)C
Activity [2]: 4% | Activity [3]: 0% | Activity [4]: 47.5% | Ratio [5]: 3.42 | Activity [6]: 48.2%
